≈ marks a conversion by molar mass, not a printed value. Calls of active or inactive are those of the source. The rule behind the calls is not given here.
Legend:
[1] = Intrinsic clearance in rat hepatocytes assessed per 10^6 cells; type: ADME, cell-based, Hepatocyte; details: read-out: CLH
[2] = Oral bioavailability in Han Wistar rat blood at 10 umol/kg; type: ADME, organism-based; details: whole blood
[3] = Fraction unbound in rat plasma by equilibrium dialysis; type: ADME, cell-free
[4] = Volume of distribution at steady state in Han Wistar rat blood at 2 or 4 umol/kg, iv or 10 umol/kg, po; type: ADME, organism-based; details: whole blood, read-out: Vdss
[5] = Octanol-buffer partition co-efficient, log D of the compound at pH 7.4 by shake-flask method; type: physicochemical
[6] = Clearance in Han Wistar rat blood at 2 or 4 umol/kg, iv or 10 umol/kg, po; type: ADME, organism-based; details: whole blood
[7] = Thermodynamic solubility of the compound in aqueous phosphate buffer at pH 7.4 at 25 degC after 24 hrs by LC-UV method; type: physicochemical; details: read-out: Therm_solubility
[8] = AUC in nude mouse at 50 mg/kg, po; type: ADME, organism-based; details: in vivo
[9] = Clearance in Han Wistar rat plasma at 2 or 4 umol/kg, iv or 10 umol/kg, po; type: ADME, organism-based
[10] = Clearance in Beagle dog plasma at 1 or 4 umol/kg, iv or 10 umol/kg, po; type: ADME, organism-based, Canis lupus familiaris
P12 [11] = assay: Antitumor activity against mouse P12 cells allografted in nu/nu mouse assessed as tumor growth inhibition at 12.5 to 25 mg/kg, po qd for 7 days; type: functional, organism-based
[12] = Volume of distribution at steady state in Han Wistar rat plasma at 2 or 4 umol/kg, iv or 10 umol/kg, po; type: ADME, organism-based; details: read-out: Vdss
COLO 205 [13] = assay: Potentiation of gemcitabine-induced antitumor activity against human COLO205 cells xenografted in nude mouse assessed as tumor growth inhibition at 25 mg/kg, po for 2 weeks; type: functional, organism-based
[14] = Oral bioavailability in Han Wistar rat plasma at 10 umol/kg; type: ADME, organism-based
[15] = Volume of distribution at steady state in Beagle dog at 1 or 4 umol/kg, iv or 10 umol/kg, po; type: ADME, organism-based, Canis lupus familiaris; details: in vivo, read-out: Vdss
[16] = Fraction unbound in dog plasma by equilibrium dialysis; type: ADME, cell-free, Canis lupus familiaris
[17] = Intrinsic clearance in human hepatocytes assessed per 10^6 cells; type: ADME, cell-based, Hepatocyte; details: read-out: CLH
[18] = Cmax in nude mouse at 50 mg/kg, po; type: ADME, organism-based; set-up: dose 50 mg/kg, route oral; details: in vivo
[19] = Intrinsic clearance in dog hepatocytes assessed per 10^6 cells; type: ADME, cell-based, Canis lupus familiaris, Hepatocyte; details: read-out: CLH
Mus musculus = assay: T>IC50 for IGF1R in nude mouse at 50 mg/kg, po
COLO 205 [20] = assay: Potentiation of gemcitabine-induced antitumor activity against human COLO205 cells xenografted in nude mouse assessed as tumor growth inhibition at 50 mg/kg, po for 1 week followed by drug cessation measured after 14 days; type: functional, organism-based
P12 [21] = assay: Inhibition of IGF1R phosphorylation in mouse P12 cells allografted in po dosed nu/nu mouse administered as single dose measured after 1 to 2 hrs post dosing; type: functional, organism-based
COLO 205 [22] = assay: Antitumor activity against human COLO205 cells xenografted in nude mouse assessed as tumor growth inhibition at 50 mg/kg, po for 2 days per week; type: functional, organism-based
[23] = Oral bioavailability in Beagle dog at 10 umol/kg; type: ADME, organism-based, Canis lupus familiaris; details: in vivo
COLO 205 [24] = assay: Potentiation of gemcitabine-induced antitumor activity against human COLO205 cells xenografted in nude mouse assessed as increase in stasis at 50 mg/kg, po for 1 week; type: functional, organism-based
[25] = molecular target: Cyclin-dependent kinase 2 (Homo sapiens, UniProt P24941)
Cytochrome P450 3A4 = Cytochrome P450 3A4 (Homo sapiens, UniProt P08684)
[26] = molecular target: Cyclin-dependent kinase 1 (Homo sapiens, UniProt P06493)
[27] = molecular target: Cyclin-dependent kinase 7 (Homo sapiens, UniProt P50613)
[28] = molecular target: Cyclin-dependent kinase 9 (Homo sapiens, UniProt P50750)
[29] = molecular target: Cyclin-dependent kinase 8 (Homo sapiens, UniProt P49336)
Sequence of Cyclin-dependent kinase 8 (P49336 whole entry): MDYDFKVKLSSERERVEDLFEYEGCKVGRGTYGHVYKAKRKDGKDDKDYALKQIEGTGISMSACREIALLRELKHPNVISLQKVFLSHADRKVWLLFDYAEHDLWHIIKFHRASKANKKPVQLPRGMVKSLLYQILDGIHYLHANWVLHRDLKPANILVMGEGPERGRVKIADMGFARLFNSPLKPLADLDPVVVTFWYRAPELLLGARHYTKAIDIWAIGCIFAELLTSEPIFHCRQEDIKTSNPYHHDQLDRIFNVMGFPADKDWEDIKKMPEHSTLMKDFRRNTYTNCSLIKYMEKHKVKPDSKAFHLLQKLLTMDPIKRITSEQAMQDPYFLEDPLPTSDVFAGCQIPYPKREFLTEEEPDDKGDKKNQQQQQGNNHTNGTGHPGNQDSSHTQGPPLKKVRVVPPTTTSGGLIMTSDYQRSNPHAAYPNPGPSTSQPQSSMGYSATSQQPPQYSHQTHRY

Sequence of Cytochrome P450 3A4 (P08684 whole entry): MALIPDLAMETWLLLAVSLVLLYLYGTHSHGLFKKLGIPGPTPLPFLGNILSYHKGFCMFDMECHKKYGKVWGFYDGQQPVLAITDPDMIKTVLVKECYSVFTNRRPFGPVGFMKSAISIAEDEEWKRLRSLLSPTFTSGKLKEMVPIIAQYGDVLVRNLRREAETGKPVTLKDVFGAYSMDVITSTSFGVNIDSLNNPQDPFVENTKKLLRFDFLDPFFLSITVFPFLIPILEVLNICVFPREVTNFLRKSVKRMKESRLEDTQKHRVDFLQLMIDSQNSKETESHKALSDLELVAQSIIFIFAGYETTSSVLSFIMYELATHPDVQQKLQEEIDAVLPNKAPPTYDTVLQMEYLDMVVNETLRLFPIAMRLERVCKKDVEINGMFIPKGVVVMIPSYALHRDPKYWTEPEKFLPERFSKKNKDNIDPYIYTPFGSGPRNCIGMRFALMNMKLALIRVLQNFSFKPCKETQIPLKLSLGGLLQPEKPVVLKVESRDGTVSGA
Sequence of Cyclin-dependent kinase 9 (P50750 whole entry): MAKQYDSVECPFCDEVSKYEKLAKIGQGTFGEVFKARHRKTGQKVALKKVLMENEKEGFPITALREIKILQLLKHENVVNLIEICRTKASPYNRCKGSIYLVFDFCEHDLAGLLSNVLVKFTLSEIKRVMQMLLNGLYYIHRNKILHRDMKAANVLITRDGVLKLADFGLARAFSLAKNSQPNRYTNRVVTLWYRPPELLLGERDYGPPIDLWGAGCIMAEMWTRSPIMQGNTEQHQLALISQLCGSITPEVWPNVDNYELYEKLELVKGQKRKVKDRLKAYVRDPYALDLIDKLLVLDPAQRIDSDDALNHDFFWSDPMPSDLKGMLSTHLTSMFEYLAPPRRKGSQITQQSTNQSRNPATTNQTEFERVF
Sequence of Cyclin-dependent kinase 1 (P06493 whole entry): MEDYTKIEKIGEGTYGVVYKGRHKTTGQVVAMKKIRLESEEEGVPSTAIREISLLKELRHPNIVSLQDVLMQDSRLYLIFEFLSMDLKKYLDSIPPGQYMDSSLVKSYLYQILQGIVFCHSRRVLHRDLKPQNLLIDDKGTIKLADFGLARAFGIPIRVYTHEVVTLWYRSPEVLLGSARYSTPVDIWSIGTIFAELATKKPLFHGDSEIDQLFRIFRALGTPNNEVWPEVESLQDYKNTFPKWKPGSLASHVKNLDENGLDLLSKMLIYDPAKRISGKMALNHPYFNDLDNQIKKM
Sequence of Cyclin-dependent kinase 7 (P50613 whole entry): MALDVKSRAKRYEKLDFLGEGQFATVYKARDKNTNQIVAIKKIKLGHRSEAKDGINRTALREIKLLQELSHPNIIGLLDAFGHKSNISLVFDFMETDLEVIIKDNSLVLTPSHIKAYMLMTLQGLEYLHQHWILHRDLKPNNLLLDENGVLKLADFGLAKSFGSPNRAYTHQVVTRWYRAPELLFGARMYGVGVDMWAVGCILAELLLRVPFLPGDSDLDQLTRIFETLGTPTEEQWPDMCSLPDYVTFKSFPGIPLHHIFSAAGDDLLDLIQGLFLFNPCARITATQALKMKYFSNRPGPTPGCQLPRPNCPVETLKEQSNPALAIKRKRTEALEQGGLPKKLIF

CC(=O)N1CCC(n2cc(Nc3ncc(Cl)c(-c4cnn5ccccc45)n3)c(C)n2)CC1
hepatocyte CLint [1]: 48 µL/min/1e6 cells
bioavailability [2]: 9%
fraction unbound [3]: 0.072
Vd [4]: 1.6 L/kg
logD [5]: 3.2
clearance [6]: 62 mL/min/kg
solubility thermodynamic at 24 h [7]: 9 µM (≈ 4.06 µg/mL)

Cc1nn(C2CCN(C(=O)[C@@H](C)O)CC2)c(C)c1Nc1ncc(Cl)c(-c2cnn3ccccc23)n1
AUC [8]: 30 µM·h
clearance [9]: 15 mL/min/kg
clearance [10]: 7 mL/min/kg
TGI (P12 [11]): Active
Vd [12]: 0.8 L/kg
TGI (COLO 205 [13]): Active
bioavailability [14]: 58%
Vd [15]: 1.3 L/kg
fraction unbound [16]: 0.12
hepatocyte CLint [17]: < 3 µL/min/1e6 cells
Cmax [18]: 12 µM
hepatocyte CLint [1]: 21 µL/min/1e6 cells
hepatocyte CLint [19]: 8.1 µL/min/1e6 cells
Time (Mus musculus): 8 h
TGI (COLO 205 [20]): Active
inhibition (P12 [21]): Dose-dependent effect
TGI (COLO 205 [22]): Active
fraction unbound [3]: 0.18
logD [5]: 2.9
bioavailability [23]: 38%
Activity (COLO 205 [24]): Active
solubility thermodynamic at 24 h [7]: 17 µM (≈ 8.41 µg/mL)

Cc1nn(C2CCN(C(=O)[C@H](C)O)CC2)c(C)c1Nc1ncc(Cl)c(-c2cnn3ccccc23)n1
logD [5]: 2.8
solubility thermodynamic at 24 h [7]: 17 µM (≈ 8.41 µg/mL)

Cc1nn(C2CCN(CC(=O)N(C)C)CC2)c(C)c1Nc1ncc(Cl)c(-c2cnn3ccccc23)n1
logD [5]: 2.9
solubility thermodynamic at 24 h [7]: 510 µM (≈ 259 µg/mL)

Cc1c(Nc2ncc(Cl)c(-c3cnc4ccccn34)n2)cnn1C1CCNCC1
logD [5]: 0.9

CNCC(=O)N1CCC(n2nc(C)c(Nc3ncc(Cl)c(-c4cnn5ccccc45)n3)c2C)CC1
logD [5]: 1.4
solubility thermodynamic at 24 h [7]: > 1000 µM

Cc1nn(C2CCNCC2)c(C)c1Nc1ncc(Cl)c(-c2cnn3ccccc23)n1
logD [5]: 1.2
solubility thermodynamic at 24 h [7]: 91 µM (≈ 38.5 µg/mL)

CC(=O)N1CCC(n2nc(C)c(Nc3ncc(Cl)c(-c4cnn5ccccc45)n3)c2C)CC1
clearance [9]: 18 mL/min/kg
Vd [12]: 1.3 L/kg
bioavailability [14]: 61%
fraction unbound [16]: 0.12
hepatocyte CLint [17]: 8.9 µL/min/1e6 cells
hepatocyte CLint [1]: 23 µL/min/1e6 cells
hepatocyte CLint [19]: 9.6 µL/min/1e6 cells
fraction unbound [3]: 0.086
logD [5]: 3.1
solubility thermodynamic at 24 h [7]: 4 µM (≈ 1.86 µg/mL)

CCc1nn(C2CCN(C(C)=O)CC2)cc1Nc1ncc(Cl)c(-c2cnn3ccccc23)n1
logD [5]: 3.4

Cc1nn(C2CCN(C(=O)CO)CC2)c(C)c1Nc1ncc(Cl)c(-c2cnn3ccccc23)n1
clearance [9]: 8 mL/min/kg
clearance [10]: 5 mL/min/kg
Vd [12]: 1.2 L/kg
bioavailability [14]: 81%
Vd [15]: 1.6 L/kg
fraction unbound [16]: 0.12
hepatocyte CLint [17]: < 3 µL/min/1e6 cells
hepatocyte CLint [1]: 12 µL/min/1e6 cells
hepatocyte CLint [19]: 6.4 µL/min/1e6 cells
fraction unbound [3]: 0.091
logD [5]: 2.6
bioavailability [23]: 6%
solubility thermodynamic at 24 h [7]: 2 µM (≈ 0.962 µg/mL)

COc1nn(C2CCN(C(C)=O)CC2)cc1Nc1ncc(Cl)c(-c2cnc3ccccn23)n1
logD [5]: 2.9

Cc1nn(C2CCN(C(=O)CN)CC2)c(C)c1Nc1ncc(Cl)c(-c2cnn3ccccc23)n1
logD [5]: 1.3
solubility thermodynamic at 24 h [7]: 260 µM (≈ 125 µg/mL)

Cc1nn(C2CCNCC2)cc1Nc1ncc(Cl)c(-c2cnc3ccccn23)n1
logD [5]: 1.1

CNC(=O)CN1CCC(n2nc(C)c(Nc3ncc(Cl)c(-c4cnn5ccccc45)n3)c2C)CC1
logD [5]: 3.2
solubility thermodynamic at 24 h [7]: 15 µM (≈ 7.41 µg/mL)

CC(=O)N1CCC(n2ncc(Nc3ncc(Cl)c(-c4cnn5ccccc45)n3)c2C)CC1
clearance [9]: 45 mL/min/kg
clearance [10]: 6 mL/min/kg
Vd [12]: 0.4 L/kg
bioavailability [14]: 6%
Vd [15]: 0.7 L/kg
fraction unbound [16]: 0.081
hepatocyte CLint [17]: < 3 µL/min/1e6 cells
hepatocyte CLint [1]: 77 µL/min/1e6 cells
hepatocyte CLint [19]: 4.8 µL/min/1e6 cells
fraction unbound [3]: 0.057
logD [5]: 3.2
bioavailability [23]: 63%
solubility thermodynamic at 24 h [7]: 9 µM (≈ 4.06 µg/mL)

CCc1c(Nc2ncc(Cl)c(-c3cnn4ccccc34)n2)cnn1C1CCN(C(C)=O)CC1
logD [5]: 3.3

CC(=O)N1CCC(n2ncc(Nc3ncc(Cl)c(-c4cnc5ccccn45)n3)c2C)CC1
logD [5]: 2.7

COc1nn(C2CCN(C(C)=O)CC2)cc1Nc1ncc(Cl)c(-c2cnn3ccccc23)n1
logD [5]: 3.3

Cc1nn(C2CCN(C(=O)[C@H](C)N)CC2)c(C)c1Nc1ncc(Cl)c(-c2cnn3ccccc23)n1
logD [5]: 1.7
solubility thermodynamic at 24 h [7]: 670 µM (≈ 331 µg/mL)

CC(=O)N1CCC(n2cc(Nc3ncc(Cl)c(-c4cnc5ccccn45)n3)c(C)n2)CC1
IC50 [25]: 135 nM
logD [5]: 2.8

COCC(=O)N1CCC(n2nc(C)c(Nc3ncc(Cl)c(-c4cnn5ccccc45)n3)c2C)CC1
logD [5]: 2.8
solubility thermodynamic at 24 h [7]: 31 µM (≈ 15.3 µg/mL)

COc1cc(N2CCN(C(C)=O)CC2)ccc1Nc1ncc(Cl)c(-c2cnn3ccccc23)n1
IC50 [25]: 1030 nM
IC50 (Cytochrome P450 3A4): < 1000 nM
logD [5]: 3.7
solubility thermodynamic at 24 h [7]: 1 µM (≈ 0.478 µg/mL)

Cc1nn(C2CCN(C(=O)[C@@H](C)N)CC2)c(C)c1Nc1ncc(Cl)c(-c2cnn3ccccc23)n1
logD [5]: 1.7
solubility thermodynamic at 24 h [7]: 620 µM (≈ 306 µg/mL)

Cc1nn(C2CCN(CCO)CC2)c(C)c1Nc1ncc(Cl)c(-c2cnn3ccccc23)n1
logD [5]: 2.5
solubility thermodynamic at 24 h [7]: 37 µM (≈ 17.3 µg/mL)

CC(=O)N1CCC(n2cc(Nc3ncc(Cl)c(-c4cnc5ccccn45)n3)cn2)CC1
IC50 [26]: 66 nM
IC50 [25]: 25 nM
IC50 [27]: 21 nM
IC50 [28]: 37 nM
IC50 [29]: 42 nM
logD [5]: 3.1

CCOc1nn(C2CCN(C(C)=O)CC2)cc1Nc1ncc(Cl)c(-c2cnn3ccccc23)n1
logD [5]: 3.5

CC(=O)N1CCC(n2nc(C)c(Nc3ncc(Cl)c(-c4cnc5ccccn45)n3)c2C)CC1
logD [5]: 2.8

Source: ChEMBL document CHEMBL3822394, “Discovery of a Potent, Selective, Orally Bioavailable, and Efficacious Novel 2-(Pyrazol-4-ylamino)-pyrimidine Inhibitor of the Insulin-like Growth Factor-1 Receptor (IGF-1R)” (J Med Chem, 2016)
